# Assay results published in US20120028837A1, “RAPID SCREEN FOR REPRODUCTIVE TOXICANTS” (PRESIDENT AND FELLOWS OF HARVARD COLLEGE, priority 2010, published 2012).
# Experiments:
# C. elegans = conditions: in vivo, 4 days, 1 mM
# Method: To address whether BPA also affects C. elegans reproduction, worms were exposed to various concentrations of BPA under several culture conditions. The parameters tested were: BPA concentration (100 uM, 500 uM or 1 mM), vehicle (DMSO or ethanol), cholesterol concentration (5 ug/ml, 0.5 ug/ml or none) and culture method (liquid or plate).
# Growing Conditions and Drug Exposures. Worms were cultured according to [23] at 20° C. on NGM plates without cholesterol. […] Exposure was carried from embryogenesis to adulthood by plating sodium hypochloride treated eggs onto drug and control plates and incubated at 20° C. for four days.
# C. elegans germline = experiment: ATL-1 and p-CHK1 immunostaining (DNA damage checkpoint); assay type: in vivo
# Description: ATL-1, the C. elegans homologue of mammalian ATM and Rad3-related protein (ATR), accumulates to sites of persistent DSBs during meiosis, and together with CLK-2, acts as a sensor of germ-cell DNA damage which leads to phosphorylation of the checkpoint kinase CHK1 and ultimately apoptosis. To further examine the progression of DSB repair, the levels of ATL-1 and phosphorylated CHK1 (p-CHK1) were monitored throughout the gonad following exposure to BPA.
# [1] = tested on: C. elegans diakinesis oocytes; experiment: Diakinesis oocyte analysis (chromosome condensation, SYP-1, AIR-2, pH3); conditions: for -1 oocytes showing lack of condensation: BPA
# Description: Proper processing of recombination events is coupled with the formation of mature bivalents during the diakinesis stage such that in mutants where recombination intermediate processing is impaired, bivalent maturation is delayed.
# Associated with the changes in chromatin morphology, the SC is disassembled during late diakinesis in a tightly controlled fashion. Accordingly, SC components, such as SYP-1, are detectable on the short arms of the bivalent in the −3 oocyte but are essentially absent from the bivalents of −2 and −1 oocytes. Thus, whether a delay in chromosome remodeling could correlate with an incomplete disassembly of SC components in late diakinesis was examined.
# Accurate chromosome segregation at meiosis I is characterized by the carefully orchestrated loss of cohesion between homologs coupled with retention of cohesion between sister chromatids. This regulated process involves the targeting of the Aurora-B kinase AIR-2, a member of the chromosomal passenger complex, to the short arm of the bivalents in the −1 oocyte which has been proposed to lead to the removal the meiosis-specific cohesin REC-8 from the short arms of the bivalent. To examine whether these key steps in late meiotic prophase I might be impaired in BPA treated gonads, the localization of AIR-2 in the −1 oocytes was examined. […] Phospho histone H3 (pH3) is a canonical substrate for the activity of AIR-2 [59] and accordingly, although it accumulates in the −3 to −1 oocytes, it is only detected on the short arms of the bivalent in the −1 oocyte in the presence of AIR-2 [56, 57].
# BPA bears endocrine disrupting activity in many developmental contexts including gonadal, brain and mammary gland development. BPA has affinity for multiple members of the estrogen receptors family, in particular BPA binds to the human estrogen receptor alpha (ERα) and ERβ as well as estrogen-related receptor gamma (ERR-γ) and in C. elegans with nuclear hormone receptor NHR-14 which also binds estrogen. […] Two hallmarks of exposure to BPA were examined, the decrease in the size of the proliferative zone and the condensation defects observed at diakinesis, as they are both highly penetrant and consistent phenotypes. […] Similarly to the experiments described above, the size of the mitotic zone was quantified as well as condensation defects at diakinesis.
# Antibody Staining. DAN staining, immunostaining and analysis of stained meiotic nuclei were performed as in [25] except for ATL-1 and AIR-2 antibodies were dissected gonads were subjected to a 1% fixation method as described in [27]. Antibodies were used at the following dilutions: rabbit α-SYP-1 (1:100), mouse α-RAD-51 (1:100), rabbit α-HTP-3 (1:500), guinea pig α-HIM-8 (1:100), rabbit α-ATL-1 (1:50), rabbit α-AIR-2 (1:100) and rabbit α-pCHK-1 (1:100). The secondary antibodies used were: Cy3 anti-rabbit, FITC anti-guinea-pig and FITC anti-mouse (Jackson Immunochemicals), each at 1:100, Stacks of 0.2 μm slices were captured using a Leica microscope, coupled to the DeltaVision fluorescence microscope system (Applied Precision). The images were projections approximately halfway through 3D data stacks of whole nuclei, except for diakinesis images which encompass entire nuclei.
# xol-1::GFP, nx3 worms = experiment: Lethality, chemical sensitivity of xol-1::GFP, nx3 cuticle mutant strain; assay type: in vivo, C. elegans; conditions: four days
# Method: The sensitivity of the xol-1::GFP, nx3 strain compared to the xol-1::GFP strain was assayed by exposing 25 worms for four days (from eggs to adulthood) to a range of concentration of Bisphenol A: 100 μM, 500 μM and 1 mM. The nx3 cuticle mutation was expected to confer increased sensitivity to BPA.
# in vivo = conditions: C. elegans
# Method: The internal concentration of free BPA was measured by tandem HPLC analysis (Axys, BC, Canada) following an extensive number of physiological buffer washes and lysis of worms cultured on BPA plates (Materials an Methods).
compound,measurement,setting,value
"CC(C)(c1ccc(O)cc1)c1ccc(O)cc1 [BPA, Bisphenol A]",embryonic viability,C. elegans,1.5 % of controls
same,reduction in the number of eggs laid (brood size) compared to vehicle,C. elegans,4 fold
same,"elevated RAD-51, ATL-1 or p-CHK1 staining in the mitotic germline nuclei",C. elegans germline; BPA exposure,not observed
same,levels of ATL-1 signal on pachytene nuclei,C. elegans germline; BPA treated vs control,significant increase
same,levels of p-CHK1 signal on pachytene nuclei,C. elegans germline; BPA treated vs control,significant increase
same,gonads with SYP-1 staining on short arm of bivalent in the -1 oocyte,[1]; BPA exposed gonads,10%
same,-1 oocytes with pH3 staining localized to the bivalents,[1]; BPA treated,14%
same,gonads in which AIR-2 was not detected on the bivalents of -1 oocytes,[1]; BPA treated gonads,100%
same,gonads in which the -1 oocyte did not show normal chromosome condensation,[1]; BPA treated gonads,23%
same,gonads with residual SYP-1 staining on short arm of bivalent in the -2 oocyte,[1]; BPA treated gonads,80%
same,kinetics of pH3 nuclear accumulation in diakinesis oocytes,[1]; BPA treated oocytes,delay in the kinetics of pH3 nuclear accumulation
same,-1 oocytes showing lack of condensation,[1]; one day post-L4,17%
same,-1 oocytes showing lack of condensation,[1]; three days post-L4,28%
same,-1 oocytes showing lack of condensation,[1]; two days post-L4,24%
same,delay in bivalent maturation judged by nuclear morphology,"[1]; all BPA gonads examined, from -1, -2 or -3 oocyte",some level of delay in bivalent maturation
same,lethality,"xol-1::GFP, nx3 worms; 100 μM",0%
same,lethality,"xol-1::GFP, nx3 worms; 500 μM",96%
same,lethality,"xol-1::GFP, nx3 worms; 1 Mm",100%
same,"concentration at 4 days, 1 mM",in vivo,2000 ng/g
